Patent US20260085253A1, “LILY OF THE VALLEY ODORANT” (Firmenich SA, priority 2022, published 2026)

Key:
Ixodes ricinus = experiment: Warm Plate assay: repellent efficacy on ticks; assay type: in vivo; details: for Percentage of repellence of ticks Ixodes ricinus on the warm plate: n = 12, last stage nymphs
Protocol: b) Warm Plate Assay: Small-Scale Test Used to Screen the Repellent Efficacy on Ticks at Different Concentrations.
Repellent efficacy of the different compounds was assessed against the sheep tick, Ixodes ricinus L that can transmit both bacterial and viral pathogens. I. ricinus is one of the recommended model organisms mentioned by the Guidance on the European […] [Vol IL, Efficacy—Assessment & Evaluation (Parts B+C), v6.0, Août 2023]. Observations of repellent efficacy were made on last stage nymphs.
The repellent efficacy was assessed using the protocol of the in-vitro Warm Plate Assay as defined in Kröber T, Bourquin M, Guerin P M. 2013. Pestic. Biochem. Phys. 107(2):160-168.
Ticks had the choice of crossing a zone with 3-(4-isopropyl-2-methylphenyl)propanal (96%) applied or to stay on their refuge without any compound applied. To motivate ticks' movement, the warm plate was heated at 33° C. (to mimic vertebrate skin temperature) and hold in a favourable environment (23° C., 85% RH).
The stimulus tested was stim A (3-(4-isopropyl-2-methylphenyl)propanal at 96%) diluted in ethanol. Twelve different ticks were tested for each of the four concentrations.

Aedes aegypti = experiment: Warm Body assay: repellent efficacy on mosquitoes; assay type: in vivo; details: 100 μL on warm body
Protocol: a) Warm Body Assay: Small-Scale Test Used to Screen the Repellent Efficacy on Mosquitoes at Different Concentrations. […] Anopheles gambiae is also a model organism as it is anthropophilic and transmits malaria. The controlling effect according to the present invention was assessed using an adapted Warm Body assay as defined in Kröber T, Kessler S, FreiJ, Bourquin M, Guerin P M. 2010. J Am Mosq Control Assoc. 26:381-386. In this in-vitro assay the number of mosquito landing on a warm body, simulating an attractive host treated with the tested stimuli, was measured in order to assess the repellence effect. The published protocol has been adapted as the switch from Anopheles gambiae to Aedes aegypti led to a decrease of mosquitoes placed in the tested cage due to the size difference (i.e. 30 mosquitoes instead of 50) and to an increase of lighting since Ae. aegypti is a diurnal mosquitoes (i.e. 150 lux instead of 4 lux). On the sandblasted glass Petri dish covering the warm body (28.3 cm^2), 100 μL of the compounds diluted at 5-8 concentrations in ethanol was applied. The number of mosquito landing on the warm body was counted for each stimulus and pure ethanol (solvent) as control. The stimuli tested were stim A (3-(4-isopropyl-2-methylphenyl)propanal at 96%) and stim B (a composition of matter comprising 3-(4-isopropyl-2-methylphenyl)propanal, 3-(2-isopropyl-4-methylphenyl)propanal and 3-(2-methyl-5-propan-2-ylphenyl)propanal at 88%, 5% and 2%, respectively) diluted in ethanol. Five to eight concentrations were assessed on each stimulus, missing data points mentioned as n.d. The mean number of mosquito landings with the solvent only (0 mg/mL) is equal to 64.5±10.1 landings in two minutes.

For `Cc1cc(C(C)C)ccc1CCC=O` [Stim A, 3-(4-isopropyl-2-methylphenyl)propanal], the “Percentage of repellence of ticks Ixodes ricinus on the warm plate” value (“Percentage of repellence … on the warm plate” below) (Ixodes ricinus; 0.4 mg/mL in ethanol) was 25.0%, the “Percentage of repellence … on the warm plate” value (Ixodes ricinus; 2 mg/mL in ethanol) was 100.0% and the “Percentage of repellence … on the warm plate” value (Ixodes ricinus; 10 mg/mL in ethanol) was 100.0%. The “repellence of ticks Ixodes ricinus on the warm plate (in words)” value (Ixodes ricinus; as soon as 0.02% applied on the warm plate) was “All ticks were repelled”, the “Percentage of repellence of mosquitoes Aedes aegypti landing on the warm body” value (“Percentage of repellence … on the warm body” below) (Aedes aegypti; 0.0032 mg/mL in ethanol) was 20% and the “Percentage of repellence … on the warm body” value (Aedes aegypti; 0.016 mg/mL in ethanol) was 41%. The “Percentage of repellence … on the warm body” value (Aedes aegypti; 0.08 mg/mL in ethanol) was 40%, the “Percentage of repellence … on the warm body” value (Aedes aegypti; 0.4 mg/mL in ethanol) was 63% and the “Percentage of repellence … on the warm body” value (Aedes aegypti; 2 mg/mL in ethanol) was 71%. The “Percentage of repellence … on the warm body” value (Aedes aegypti; 10 mg/mL in ethanol) was 90%.
